Reference: ChEMBL document CHEMBL3832039, “DailyMed|setid=8e4382de-df78-4821-b11e-c423442a7ff8 | DIOVAN - valsartan tablet|PD-Rx Pharmaceuticals, Inc”

Tests used:
Type in all cases: ADME, organism-based
[1] = Apparent clearance of Valsartan following oral administration of 40 to 160 mg Valsartan, twice a day, to heart failure patients.; conditions: human, in vivo, dose Range 40 to 160 mg, dosed compound id 15, dosed compound name VALSARTAN, regimen Every 12h, tissue Plasma, read-out: CL(app) (converted)
Homo sapiens = assay: (§1) Pharmacokinetic parameters for Valsartan following oral or intravenous administration of Valsartan solution.; conditions: in vivo, po, dosed compound id 15, dosed compound name VALSARTAN
[2] = as §1; conditions: human, in vivo, dosed compound id 15, dosed compound name VALSARTAN, tissue Plasma

CL/F [1]: 75 mL/min | Excretion (Homo sapiens; tissue Feces): 83% | Excretion (Homo sapiens; tissue Urine): 13% | Tmax ([2]; po): 2 to 4 h | clearance ([2]; route iv): 33.3 mL/min | half-life ([2]; route iv): 6 h | CL renal ([2]; route iv, read-out: CL_renal (converted)): 10.3 mL/min | Vd ([2]; route iv, read-out: Vss): 17 L
SMILES: CCCCC(=O)N(Cc1ccc(-c2ccccc2-c2nnn[nH]2)cc1)[C@H](C(=O)O)C(C)C [VALSARTAN]
